Measurements reported in the supplement of paper PMC10307832.

Legend:
Assay in all cases: relative viability (nuclei count vs DMSO), 5 days (fraction); higher = more cells survive
SK-MES-1 = system: SK-MES-1
In short: (§1)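 Five library-drug doses in √10 steps were combined with a fixed anchor-drug dose, or a single drug was given alone, by pin tool to lung cancer cell lines in 1536-well plates the day after seeding. Nuclei were stained and counted after 5 days. Relative viability is the nuclei count in treated wells over that in vehicle wells, taken as the median of duplicate plates.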

NCI-H647 = system: NCI-H647
In short: as §1

NCI-H2009 = system: NCI-H2009
In short: as §1

NCI-H1792 = system: NCI-H1792
In short: as §1

NCI-H1648 = system: NCI-H1648
In short: as §1

HCC-15 = system: HCC-15
In short: as §1

LCLC-97TM1 = system: LCLC-97TM1
In short: as §1

RERF-LC-KJ = system: RERF-LC-KJ
In short: as §1

SW 1573 = system: SW 1573
In short: as §1

NCI-H650 = system: NCI-H650
In short: as §1

EPLC-272H = system: EPLC-272H
In short: as §1

NCI-H1395 = system: NCI-H1395
In short: as §1

HCC-827 = system: HCC-827
In short: as §1

HCC-44 = system: HCC-44
In short: as §1

NCI-H596 = system: NCI-H596
In short: as §1

COR-L 105 = system: COR-L 105
In short: as §1

NCI-H1993 = system: NCI-H1993
In short: as §1

ABC-1 = system: ABC-1
In short: as §1

NCI-H661 = system: NCI-H661
In short: as §1

HCC-78 = system: HCC-78
In short: as §1

NCI-H522 = system: NCI-H522
In short: as §1

NCI-H358 = system: NCI-H358
In short: as §1

HCC-366 = system: HCC-366
In short: as §1

Oc1nc(-c2ccc(C(F)(F)F)cc2)nc2c1CSCC2 [XAV939] + O=C(c1cc(Cc2n[nH]c(=O)c3ccccc23)ccc1F)N1CCN(C(=O)C2CC2)CC1 [Olaparib] (partner 8 µM)
relative viability (SK-MES-1; first compound 0.08 µM): 0.664 | relative viability (SK-MES-1; first compound 0.253 µM): 0.605 | relative viability (SK-MES-1; first compound 0.8 µM): 0.621 | relative viability (SK-MES-1; first compound 2.53 µM): 0.465 | relative viability (NCI-H647; first compound 0.08 µM): 0.734 | relative viability (NCI-H647; first compound 0.253 µM): 0.451 | relative viability (NCI-H647; first compound 0.8 µM): 0.506 | relative viability (NCI-H647; first compound 2.53 µM): 0.439 | relative viability (NCI-H2009; first compound 0.08 µM): 0.918 | relative viability (NCI-H2009; first compound 0.253 µM): 0.728 | relative viability (NCI-H2009; first compound 0.8 µM): 0.641 | relative viability (NCI-H2009; first compound 2.53 µM): 0.754 | relative viability (NCI-H1792; first compound 0.08 µM): 0.602 | relative viability (NCI-H1792; first compound 0.253 µM): 0.379 | relative viability (NCI-H1792; first compound 0.8 µM): 0.398 | relative viability (NCI-H1792; first compound 2.53 µM): 0.268 | relative viability (NCI-H1648; first compound 0.253 µM): 0.63 | relative viability (NCI-H1648; first compound 0.8 µM): 1.12 | relative viability (NCI-H1648; first compound 2.53 µM): 0.355 | relative viability (HCC-15; first compound 0.08 µM): 0.693 | relative viability (HCC-15; first compound 0.253 µM): 0.717 | relative viability (HCC-15; first compound 0.8 µM): 0.67 | relative viability (HCC-15; first compound 2.53 µM): 0.676 | relative viability (LCLC-97TM1; first compound 0.08 µM): 0.326 | relative viability (LCLC-97TM1; first compound 0.253 µM): 0.425 | relative viability (LCLC-97TM1; first compound 2.53 µM): 0.279 | relative viability (RERF-LC-KJ; first compound 0.08 µM): 0.868 | relative viability (RERF-LC-KJ; first compound 0.253 µM): 0.763 | relative viability (RERF-LC-KJ; first compound 0.8 µM): 0.617 | relative viability (RERF-LC-KJ; first compound 2.53 µM): 0.292 | relative viability (SW 1573; first compound 0.08 µM): 0.437 | relative viability (SW 1573; first compound 0.253 µM): 0.499 | relative viability (SW 1573; first compound 0.8 µM): 0.485 | relative viability (SW 1573; first compound 2.53 µM): 0.379 | relative viability (NCI-H650; first compound 0.08 µM): 0.413 | relative viability (NCI-H650; first compound 0.253 µM): 0.426 | relative viability (NCI-H650; first compound 0.8 µM): 0.47 | relative viability (NCI-H650; first compound 2.53 µM): 0.372 | relative viability (EPLC-272H; first compound 0.08 µM): 0.745 | relative viability (EPLC-272H; first compound 0.253 µM): 0.89 | relative viability (EPLC-272H; first compound 0.8 µM): 0.97 | relative viability (EPLC-272H; first compound 2.53 µM): 0.719 | relative viability (NCI-H1395; first compound 0.08 µM): 0.47 | relative viability (NCI-H1395; first compound 0.253 µM): 0.449 | relative viability (NCI-H1395; first compound 0.8 µM): 0.478 | relative viability (NCI-H1395; first compound 2.53 µM): 0.425 | relative viability (HCC-827; first compound 0.08 µM): 0.622 | relative viability (HCC-827; first compound 0.253 µM): 0.667 | relative viability (HCC-827; first compound 0.8 µM): 0.62 | relative viability (HCC-827; first compound 2.53 µM): 0.769 | relative viability (HCC-44; first compound 0.08 µM): 0.935 | relative viability (HCC-44; first compound 0.253 µM): 0.904 | relative viability (HCC-44; first compound 0.8 µM): 0.958 | relative viability (HCC-44; first compound 2.53 µM): 0.866 | relative viability (NCI-H596; first compound 0.08 µM): 0.769 | relative viability (NCI-H596; first compound 0.253 µM): 0.644 | relative viability (NCI-H596; first compound 0.8 µM): 0.776 | relative viability (NCI-H596; first compound 2.53 µM): 0.556 | relative viability (COR-L 105; first compound 0.08 µM): 0.57 | relative viability (COR-L 105; first compound 0.253 µM): 0.486 | relative viability (COR-L 105; first compound 0.8 µM): 0.494 | relative viability (COR-L 105; first compound 2.53 µM): 0.561 | relative viability (NCI-H1993; first compound 0.08 µM): 1.01 | relative viability (NCI-H1993; first compound 0.253 µM): 0.87 | relative viability (NCI-H1993; first compound 0.8 µM): 1.1 | relative viability (NCI-H1993; first compound 2.53 µM): 1.16 | relative viability (ABC-1; first compound 0.253 µM): 0.792 | relative viability (ABC-1; first compound 0.8 µM): 1.25 | relative viability (ABC-1; first compound 2.53 µM): 0.61 | relative viability (NCI-H661; first compound 0.08 µM): 0.743 | relative viability (NCI-H661; first compound 0.253 µM): 0.655 | relative viability (NCI-H661; first compound 0.8 µM): 0.678 | relative viability (NCI-H661; first compound 2.53 µM): 0.708 | relative viability (HCC-78; first compound 0.08 µM): 0.843 | relative viability (HCC-78; first compound 0.253 µM): 0.821 | relative viability (HCC-78; first compound 0.8 µM): 0.713 | relative viability (HCC-78; first compound 2.53 µM): 0.592 | relative viability (NCI-H522; first compound 0.08 µM): 0.887 | relative viability (NCI-H522; first compound 0.253 µM): 0.649 | relative viability (NCI-H522; first compound 0.8 µM): 0.63 | relative viability (NCI-H522; first compound 2.53 µM): 0.689 | relative viability (NCI-H358; first compound 0.08 µM): 0.615 | relative viability (NCI-H358; first compound 0.253 µM): 0.5 | relative viability (NCI-H358; first compound 0.8 µM): 0.598 | relative viability (NCI-H358; first compound 2.53 µM): 0.563 | relative viability (HCC-366; first compound 0.08 µM): 0.414 | relative viability (HCC-366; first compound 0.253 µM): 0.326 | relative viability (HCC-366; first compound 0.8 µM): 0.283 | relative viability (HCC-366; first compound 2.53 µM): 0.175
